Structures are written as SMILES. Some results are limits rather than exact numbers.

Series [1] deals with A549 human lung carcinoma cells. As to the kind of experiment: anti-proliferation, SRB colorimetric assay, A549. The class given is cell-based. Particulars: concentration required for 50% growth inhibition, read-out: IC50 (μM, mean ± S.D.). (In general: The SRB assay estimates cell density from bound dye.)
Another series has as its target T1, FLT-3 (Homo sapiens, UniProt P36888).
T1 sequence (P36888 27-993): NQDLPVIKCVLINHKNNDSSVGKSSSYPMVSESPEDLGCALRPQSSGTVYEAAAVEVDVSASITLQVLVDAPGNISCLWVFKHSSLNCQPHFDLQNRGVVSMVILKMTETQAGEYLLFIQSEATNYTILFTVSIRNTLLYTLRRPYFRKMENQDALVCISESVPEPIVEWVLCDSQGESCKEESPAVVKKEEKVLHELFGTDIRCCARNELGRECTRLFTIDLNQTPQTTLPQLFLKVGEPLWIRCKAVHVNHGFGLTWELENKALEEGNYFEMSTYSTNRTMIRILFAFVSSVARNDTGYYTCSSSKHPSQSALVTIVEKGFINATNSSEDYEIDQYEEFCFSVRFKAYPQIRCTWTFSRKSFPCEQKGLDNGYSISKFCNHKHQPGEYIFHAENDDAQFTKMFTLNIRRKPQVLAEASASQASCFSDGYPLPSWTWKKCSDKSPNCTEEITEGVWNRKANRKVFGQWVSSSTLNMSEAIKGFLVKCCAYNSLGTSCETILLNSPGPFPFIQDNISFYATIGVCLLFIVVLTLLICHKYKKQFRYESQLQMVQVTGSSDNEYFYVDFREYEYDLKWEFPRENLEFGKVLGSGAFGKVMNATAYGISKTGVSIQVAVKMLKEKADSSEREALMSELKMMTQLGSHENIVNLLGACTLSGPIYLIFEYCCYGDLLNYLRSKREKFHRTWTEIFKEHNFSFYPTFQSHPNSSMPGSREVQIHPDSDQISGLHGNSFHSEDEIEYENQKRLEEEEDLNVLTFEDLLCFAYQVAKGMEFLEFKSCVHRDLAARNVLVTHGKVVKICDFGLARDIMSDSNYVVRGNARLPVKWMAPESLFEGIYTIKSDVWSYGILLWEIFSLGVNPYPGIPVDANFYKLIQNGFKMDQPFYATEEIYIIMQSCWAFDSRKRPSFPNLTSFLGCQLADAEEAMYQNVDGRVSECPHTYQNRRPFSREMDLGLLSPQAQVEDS
Kind of series: radioisotope-based P81 filter-binding assay, FLT-3 kinase. As to conditions: for IC50: averaged from two independent dose-response curves, read-out: Enzyme assay IC50 FLT-3. The class given is biochemical. How it is done:
(§1) Compounds of formula (I)-(IV) were evaluated for abilities in inhibiting protein kinases aurora B and FLT-3 activity using radioisotope-based P81 filter-binding assay (Table 1).

The target in another series is aurora B (Homo sapiens, UniProt Q96GD4). Kind of series: radioisotope-based P81 filter-binding assay, aurora B kinase. Particulars: for inhibition at 1 µM: compound at 1.0 μM, mean values (n=2), read-out: percent inhibition of enzyme catalytic activity, Aur B (numbers in parentheses); for IC50: averaged from two independent dose-response curves, read-out: Enzyme assay IC50 Aur B. The class given is biochemical. How it is done: as §1
Sequence of aurora B (Q96GD4 whole entry): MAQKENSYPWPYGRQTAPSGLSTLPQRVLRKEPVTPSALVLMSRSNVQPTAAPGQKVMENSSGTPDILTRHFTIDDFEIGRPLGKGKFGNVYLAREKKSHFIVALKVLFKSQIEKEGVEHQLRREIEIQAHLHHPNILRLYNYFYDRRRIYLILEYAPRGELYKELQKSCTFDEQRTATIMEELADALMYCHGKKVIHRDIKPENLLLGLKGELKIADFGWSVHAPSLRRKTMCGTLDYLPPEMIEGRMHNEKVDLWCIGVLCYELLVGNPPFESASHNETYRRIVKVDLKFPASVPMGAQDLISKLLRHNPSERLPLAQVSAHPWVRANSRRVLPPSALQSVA

Series [2] deals with HepG2 human hepatocellular carcinoma cells. Kind of series: anti-proliferation, SRB colorimetric assay, HepG2. The class given is cell-based. Particulars: concentration required for 50% growth inhibition, read-out: IC50 (μM, mean ± S.D.). From the text:
HCT116 human colorectal carcinoma cells (Table 3), HepG2 human hepatocellular carcinoma cells (Table 4), and MV4-11 human acute myelomonocytic leukemia cells (Table 5).

The test system of series [3] is MV4-11 human acute myelomonocytic leukemia cells. As to the kind of experiment: anti-proliferation, SRB colorimetric assay, MV4-11. It is filed as cell-based. Particulars: concentration required for 50% growth inhibition. How it is done: HCT116 human colorectal carcinoma cells (Table 3), HepG2 human hepatocellular carcinoma cells (Table 4), and MV4-11 human acute myelomonocytic leukemia cells (Table 5). Cells were treated with the test compound and the concentration required for 50% growth inhibition (IC50) determined by sulfomodamine B (SRB) colorimetric assay.

Consider `COc1ccc(C(=O)NC(=O)Nc2ccc3c(c2)/C(=C/c2ccc[nH]2)C(=O)N3)cc1` [D14, (Z)—N-(3-((1H-pyrrol-2-yl)methylene)-2-oxoindolin-5-ylcarbamoyl)-4-methoxybenzamide], for which the melting point (usually the temperature of the solid-liquid transition) is 285 to 290 °C (dec.). Besides, in series [1], the half-inhibitory concentration (IC50) (as a rule, the midpoint of a concentration-inhibition curve) is 0.73 ± 0.02 µM. In addition, the IC50 on FLT-3 was determined as 201 nM. In addition, the inhibition (commonly how much of the control response was suppressed) at 1 µM on aurora B was determined as 39.3%. The IC50 in series [2] was 0.64 ± 0.01 µM. Also, in series [3], the midpoint of inhibition, the IC50, lay at 0.07 nM.
As for `COc1ccc(C(=O)NC(=O)Nc2ccc3c(c2)NC(=O)/C3=C\c2ccc[nH]2)cc1` [D15], the IC50 was 334 nM on FLT-3, 14.9 nM on aurora B, 0.96 ± 0.03 µM in series [2] and 6.13 nM in series [3].
For `COc1ccc(C(=O)NC(=O)Nc2cccc3c2NC(=O)/C3=C\c2ccc[nH]2)cc1` [D16, (Z)—N-(3-((1H-pyrrol-2-yl)methylene)-2-oxoindolin-7-ylcarbamoyl)-4-methoxybenzamide], the melting point is 253 to 258 °C (dec.). Moreover, the IC50 in series [1] stood at 0.99 ± 0.08 µM. Also, at FLT-3 (compound at 1.0 μM, mean values (n=2), read-out: percent inhibition of enzyme catalytic activity, FLT-3 (numbers in parentheses)), the inhibition at 1 µM came to 6.9%. Further, the inhibition at 1 µM at aurora B worked out at 7.3%. Also, the IC50 in series [2] was 0.84 ± 0.01 µM.
For `O=C(NC(=O)c1ccc(Cl)cc1)Nc1ccc2c(c1)NC(=O)/C2=C\c1ccc[nH]1` [D25, (Z)—N-(3-((1H-pyrrol-2-yl)methylene)-2-oxoindolin-6-ylcarbonamoyl)-4-chlorobenzamide], the melting point was 280 to 285 °C (dec.). Moreover, the IC50 at FLT-3 amounted to 676 nM. In addition, the IC50 on aurora B is 6.5 nM. For the same compound, the IC50 in series [2] stood at 0.94 ± 0.03 µM. In series [3], this compound gave an IC50 of 6.14 nM.
As to `O=C(NC(=O)c1ccc(Cl)c(Cl)c1)Nc1ccc2c(c1)NC(=O)/C2=C\c1ccc[nH]1` [D26, (Z)—N-(3-((1H-pyrrol-2-yl)methylene)-2-oxoindolin-6-ylcarbamoyl)-3,4-dichlorobenzamide], the melting point is 295 to 300 °C (dec.). Further, the IC50 at FLT-3 was above 1000 nM. In addition, the IC50 at aurora B is 7.7 nM. Further, the IC50 in series [2] was determined as 0.63 ± 0.04 µM. For the same compound, in series [3], half-maximal inhibition (IC50) was put at 1.13 nM.
In the case of `CN(C)c1ccc(C(=O)NC(=O)Nc2ccc3c(c2)NC(=O)/C3=C\c2ccc[nH]2)cc1` [D31, (Z)—N-(3-((1H-pyrrol-2-yl)methylene)-2-oxoindolin-6-ylcarbamoyl)-4-(dimethylamino)benzamide], the melting point was 285 to 290 °C (dec.). At FLT-3, the IC50 is 134 nM. Besides, at aurora B, the IC50 came to 159 nM. In series [2], the IC50 came to 0.63 ± 0.02 µM.
For the compound `Cc1[nH]c(/C=C2\C(=O)Nc3cc(NC(=O)NC(=O)c4ccc(Cl)cc4)ccc32)c(C)c1C(=O)O` [D33, (Z)-5-((6-(3-(4-chlorabenzoyl)ureido)-2-oxoindolin-3-ylidene)-methyl)-2,4-dimethyl-1H-pyrrole-3-carboxylic acid], the melting point is above 300 °C. Besides, at FLT-3, the IC50 came out at 506 nM. Moreover, the IC50 at aurora B was found to be 3.1 nM. In series [2], the concentration for half-maximal inhibition (IC50) stood at 0.65 ± 0.05 µM.
The compound `Cc1[nH]c(/C=C2\C(=O)Nc3cc(NC(=O)NC(=O)c4ccc(Cl)c(C(F)(F)F)c4)ccc32)c(C)c1C(=O)O` [D36, (Z)-5-((6-(3-(4-chloro-3-(trifluoromethyl)benzoyl)ureido)-2-oxoindolin-3-ylid-ene)methyl)-2,4-dimethyl-1H-pyrrol-3-carboxylic acid] displayed a melting point of 270 to 275 °C. Moreover, the IC50 on FLT-3 turned out to be 51.6 nM. Moreover, the IC50 at aurora B worked out at 10.7 nM. The IC50 in series [2] worked out at 0.12 ± 0.07 µM.
In the case of `Cc1ccc(C(=O)NC(=O)Nc2ccc3c(c2)NC(=O)/C3=C\c2[nH]c(C)c(C(=O)O)c2C)cc1` [D39, (Z)-2,4-dimethyl-5-((6-(3-(4-methylbenzoyl)ureido)-2-oxoindolin-3-ylidene)-methyl)-1H-pyrrole-3-carboxylic acid], the melting point is 295 to 300 °C (dec.). In series [1], the IC50 was determined as 0.77 ± 0.11 µM. Moreover, on FLT-3, the IC50 came out at 265 nM. Also, at aurora B, the IC50 stood at 2.5 nM. Besides, the IC50 in series [2] was determined as 0.63 ± 0.21 µM. In series [3], this compound gave an IC50 of 7.21 nM.
Regarding `COc1ccc(C(=O)NC(=O)Nc2ccc3c(c2)NC(=O)/C3=C\c2[nH]c(C)c(C(=O)O)c2C)cc1` [D41, (Z)-5-((6-(3-(4-methoxybenzoyl)ureido)-2-oxoindolin-3-ylidene)-methyl)-2,4-di-methyl-1H-pyrrole-3-carboxylic acid], the IC50 in series [1] was 0.48 ± 0.05 µM; on FLT-3, 180 nM; at aurora B it was 1.9 nM; in series [2], 0.73 ± 0.13 µM.
`Cc1[nH]c(/C=C2\C(=O)Nc3cc(NC(=O)NC(=O)c4ccccc4F)ccc32)c(C)c1C(=O)O` [D53, (Z)-5-((6-(3-(2-fluorobenzoyl)ureido)-2-oxoindolin-3-ylidene)methyl)-2,4-dimethyl-1H-pyrrole-3-carboxylic acid]: the melting point was 264 to 269 °C (dec.). The IC50 in series [1] came out at 0.63 ± 0.08 µM. For the same compound, the IC50 on FLT-3 was determined as 508 nM. For the same compound, the IC50 at aurora B was determined as 3.7 nM. Also, the IC50 in series [2] was 0.85 ± 0.11 µM. For the same compound, the IC50 in series [3] stood at 8.07 nM.
Regarding `O=C(CC(=O)Nc1ccc2c(c1)NC(=O)/C2=C\c1ccc[nH]1)Nc1ccc(F)cc1` [D75, (Z)—N^1-(3-((1H-pyrrol-2-yl)methylene)-2-oxoindolin-6-yl)-N^3-(4-fluorophenyl)malonamide], the IC50 in series [1] is 0.69 ± 0.05 µM; at aurora B it was 25 nM.
As for `Cc1[nH]c(/C=C2\C(=O)Nc3cc(NC(=O)N4CCN(C5CC5)C4=O)ccc32)c(C)c1CC(=O)O` [D97, (Z)-2-(5-((6-(3-cyclopropyl-2-oxoimidazolidine-1-carboxamido)-2-oxoindolin-3-ylidene)methyl)-2,4-dimethyl-1H-pyrrol-3-yl)acetic acid], the IC50 was found to be 0.83 ± 0.04 µM in series [1], 113 nM at FLT-3, 2.7 nM at aurora B and 0.87 ± 0.05 µM in series [2].
For `O=C1Nc2cc(NC(=O)c3cccn(-c4ccc(F)cc4)c3=O)ccc2/C1=C/c1ccc[nH]1` [D107, (Z)—N-(3-((1H-pyrrol-2-yl)methylene)-2-oxoindolin-6-yl)-1-(4-fluorophenyl)-2-oxo-1,2-dihydropyridine-3-carboxamide], the melting point lay within 295 to 296 °C. Moreover, the half-inhibitory concentration (IC50) in series [1] came to 0.7 ± 0.2 µM. On FLT-3, the IC50 worked out at 8.6 nM. In addition, the IC50 at aurora B worked out at 791 nM. For the same compound, in series [2], the IC50 stood at 0.9 ± 0.2 µM. In series [3], this compound displayed an IC50 of 0.02 nM.
In turn, `O=C1Nc2cc(NC(=O)c3c[nH]cc(-c4ccccc4)c3=O)ccc2/C1=C/c1ccc[nH]1` [D127] came in with a melting point above 300 °C. For the same compound, the 50% inhibitory concentration (IC50) in series [1] was 0.49 ± 0.03 µM. In addition, the IC50 on FLT-3 is 27.7 nM. For the same compound, the IC50 on aurora B is 38.8 nM. In addition, in series [3], the IC50 was 7.18 nM.
For the compound `O=C1Nc2cc(NC(=O)c3c[nH]cc(-c4ccc(F)cc4)c3=O)ccc2/C1=C/c1ccc[nH]1` [D129, (Z)—N-(3-((1H-pyrrol-2-yl)methylene)-2-oxoindolin-6-yl)-5-(4-fluorophenyl)-4-oxo-1,4-dihydropyridine-3-carboxamide], the melting point is above 300 °C. Further, in series [1], the IC50 was 0.45 ± 0.07 µM. For the same compound, the IC50 on FLT-3 was 38.1 nM. Besides, on aurora B, the half-maximal inhibitory concentration (IC50) turned out to be 128 nM. Moreover, the IC50 in series [3] was 1.83 nM.
For the compound `Cc1cc(C)c(/C=C2\C(=O)Nc3cc(NC(=O)c4c[nH]cc(-c5ccc(F)cc5)c4=O)ccc32)[nH]1` [D140, (Z)—N-(3-((3,5-dimethyl-1H-pyrrol-2-yl)methylene)-2-oxoindolin-6-yl)-5-(4-fluorophenyl)-4-oxo-1,4-dihydropyridine-3-carboxamide], the melting point was above 300 °C. Also, on FLT-3, the IC50 came to 86.6 nM. For the same compound, the IC50 at aurora B stood at 179 nM. Besides, in series [2], the IC50 was 0.56 ± 0.02 µM. For the same compound, in series [3], the IC50 came out at 12.8 nM.
